Measurements published in patent US6613897B1, “Compounds having glucuronic acid derivatives and glucosamine derivative in the structure, process for producing the same and utilization thereof” (Maruha Corporation, priority 1998, dated 2003).
Read-outs that look alike come from different tables or passages of the source.

What was measured:
[1] = test system: rabbit platelet rich plasma; settings: read-out: 50% Inhibitory Concentration; collagen-induced platelet aggregation, rabbit PRP
Experimental: Blood was taken from the rabbit aorta in an amount of 9 volumes of the blood per volume of a 3.8% aqueous solution of sodium citrate. The blood sample was immediately centrifuged (50×g, 10 min, room temperature) to obtain platelet rich plasma (PRP) as a supernatant. […] The mixture was held for 1 minute at 37° C., and then 10 μL of 10 μg/mL collagen (bovine tendon collagen: a product of Meiji Yakuhin) was added as an aggregation inducer. An aggregation curve was recorded for 7 minutes after addition.

[2] = test system: bovine aortic vascular endothelial cells
Experimental: A test was conducted to investigate the interaction of the compounds of the invention with vascular endothelial growth factor (VEGF). As the VEGF, human recombinant VEGF was used (Vascular Endothelial Growth Factor, Human, Recombinant, For Biochemical Use: a product of Wako Pure Chemical Industries).
The test was conducted in the same manner as in Example 12, but VEGF (final concentration 10 ng/mL) was added simultaneously with the addition of the compound. As comparative tests, a VEGF single addition test (a test in which only VEGF was added) and a negative control test (a test in which neither the compound nor VEGF was added) were performed. The effect on vascular endothelial cell growth was measured in the same way as in Example 12.
The vascular endothelial cell growth promoting action of each of the compounds was evaluated from the following equation:
Promoting rate (%)={(Increase in the BrdU uptake in the compound addition test)/(Increase in the BrdU uptake in the negative control test)}×100

[3] = test system: bovine aortic vascular endothelial cells; experiment: Vascular endothelial cell growth promoting action (BrdU uptake); format: cell-based; settings: 20 hours
Experimental: This test used bovine aortic vascular endothelial cells (passage number 3) as cells, and MEM containing 10% FCS (fetal calf serum), 100 units/mL penicillin G, and 100 μg/mL streptomycin as a culture medium. […] Culture was performed for 20 hours at 37° C. and 5% CO2, and then the effect of the compounds on vascular endothelial cell growth was measured using “Cell Growth ELISA, BrdU Color Development Kit” (Boehringer Mannheim) (uptake of 5-bromodeoxyuridine (BrdU) was adopted as an indicator).

[4] = compound concentration 0.1 μg/mL + VEGF 10 ng/mL
[5] = compound concentration 0.5 μg/mL + VEGF 10 ng/mL
[6] = compound concentration 1 μg/mL + VEGF 10 ng/mL
[7] = compound concentration 5 μg/mL + VEGF 10 ng/mL
[8] = compound concentration 10 μg/mL + VEGF 10 ng/mL
[9] = compound concentration 0.1 μg/mL
[10] = compound concentration 0.5 μg/mL
[11] = compound concentration 10 μg/mL

Substance | IC50 [1] | Promoting rate [2, 4] | Promoting rate [2, 5] | Promoting rate [2, 6] | Promoting rate [2, 7] | Promoting rate [2, 8] | Promoting rate [3, 9] | Promoting rate [3, 10] | Promoting rate ([3]; compound concentration 1 μg/mL) | Promoting rate ([3]; compound concentration 5 μg/mL) | Promoting rate [3, 11] | Promoting rate ([2]; VEGF added alone, 10 ng/mL (compound concentration 0))
4-deoxy-α-L-threo-hexa-4-enepyranuronosyl-(1→3)-O-2-acetamide-2-deoxy-β-D-glucopyranosyl-(1→4)-3-O-β-D-glucopyranuronosyl-(1→3)-O-2-acetamide-2-deoxy-β-D-glucopyranose [Compound Example 1] | 2700 nM | – | – | – | – | – | – | – | – | – | – | –
4-deoxy-α-L-threo-hexa-4-enepyranuronosyl-(1→3)-O-2-acetamide-2-deoxy-β-D-glucopyranosyl-(1→4)-3-O-β-D-glucopyranuronitol [Compound Example 9] | – | 159.8% | 200.2% | 245.6% | 244.2% | 196.8% | 102.8% | 139.5% | 180.3% | 179.3% | 133.4% | –
4-deoxy-α-L-threo-hexa-4-enepyranuronosyl-(1→3)-O-2-acetamide-2-deoxy-β-D-glucopyranosyl-(1→4)-3-O-β-D-glucopyranuronosyl-(1→3)-O-2-acetamide-2-deoxy-β-D-glucopyranitol [Compound Example 5] | – | 160.9% | 205.0% | 243.8% | 231.1% | 200.4% | 101.1% | 144.2% | 182.7% | 169.9% | 141.1% | –
4-deoxy-α-L-threo-hexa-4-enepyranuronosyl-(1→3)-O-2-acetamide-2-deoxy-β-D-glucopyranosyl-(1→4)-3-O-β-D-glucopyranuronosyl-(1→3)-O-2-acetamide-2-deoxy-β-D-glucopyranosyl-(1→4)-3-O-β-D-glucopyranuronosyl-(1→3)-O-2-acetamide-2-deoxy-β-D-glucopyranitol [Compound Example 6] | 2.7 nM | 159.8% | 205.2% | 232.2% | 224.8% | 205.7% | 100.5% | 143.8% | 167.9% | 168.8% | 142.2% | –
4-deoxy-α-L-threo-hexa-4-enepyranuronosyl-(1→3)-O-2-acetamide-2-deoxy-β-D-glucopyranosyl-(1→4)-3-O-β-D-glucopyranuronosyl-(1→3)-O-2-acetamide-2-deoxy-β-D-glucopyranosyl-(1→4)-3-O-β-D-glucopyranuronosyl-(1→3)-O-2-acetamide-2-deoxy-β-D-glucopyranose [Compound Example 2] | 3.2 nM | – | – | – | – | – | – | – | – | – | – | –
4-deoxy-α-L-threo-hexa-4-enepyranuronosyl-(1→3)-O-2-acetamide-2-deoxy-β-D-glucopyranosyl-(1→4)-3-O-β-D-glucopyranuronic acid [Compound Example 7] | – | 165.0% | 206.2% | 235.9% | 228.7% | 191.3% | 104.8% | 139.7% | 172.6% | 170.0% | 129.7% | –
VEGF | – | – | – | – | – | – | – | – | – | – | – | 148.5%
4-deoxy-α-L-threo-hexa-4-enepyranuronosyl-(1→3)-O-2-acetamide-2-deoxy-β-D-glucopyranosyl-(1→4)-3-O-β-D-glucopyranuronosyl-(1→3)-O-2-acetamide-2-deoxy-β-D-glucopyranosyl-(1→4)-3-O-β-D-glucopyranuronic acid [Compound Example 8] | 3.8 nM | 168.7% | 202.9% | 251.2% | 224.9% | 199.2% | 103.3% | 140.9% | 181.1% | 168.7% | 141.3% | –
